# Reference: publication PMC6306559 (Pharmacology Research & Perspectives, 2018)
# Like-named read-outs stand apart in the source and are kept apart here.
# How the values were obtained:
# [1] = test system: α1A‐AR expressing COS‐7 cells; assay: Phenylephrine-induced CRE reporter assay; assay type: cell-based; conditions: for Effect of inhibitor on diazepam modulation of phenylephrine‐stimulated CRE response / Cotreatment with diazepam, effect on phenylephrine CRE response / Modulation of phenylephrine CRE response by PDE inhibitor: 0.1 μmol/L phenylephrine; for Modulation of phenylephrine CRE response by PDE inhibitor: IBMX 500 μmol/L, rolipram 10 μmol/L
# Description: (§1) cAMP response element (CRE) response assays were performed as previously described by transfecting WT α1A‐ and α1B‐AR stably expressing COS‐7 cells, parental COS‐7 cells or parental HEK293T cells, with a β‐galactosidase expression plasmid under the control of the CRE promoter.10 CRE reporter‐transfected cells were seeded into 96‐well culture plates for 24 hours before treatment with various compounds for 6 hours at 37°C 5% CO2. Media was aspirated, and the cells frozen at −80°C for at least 24 hours before measurement of cellular β‐galactosidase expression using chlorophenol red‐β‐D‐galactopyranoside. Ligands were made up in 0.5% FBS DMEM media. […] HEK293T cells transiently transfected with GPR68 and pCRE were stimulated with sodium bicarbonate‐free, low glucose DMEM, supplemented with 20 mmol/L HEPES and 0.5% FBS at pH 6.8, 7.0, 7.2, 7.4, and 7.8. The pH was adjusted at 37°C with NaOH. Cells were incubated for 6 hours at 37°C, in a room atmosphere incubator.
# Nuclear magnetic resonance (NMR) data were processed in Topspin 3.5 using squared cosine‐bells in both dimensions and zero‐filled once, prior to Fourier‐transformation. All other data was analyzed with Graphpad prism 7 (San Diego, CA, USA). All error bars are standard deviation (SD) from three independent experiments. Competition binding assays were performed in duplicate wells. Curves were fit with one site nonlinear regression. For whole cell QAPB binding, the mean QAPB fluorescence intensity (MFI) of at lease 5000 cells was measured, and plotted against QAPB concentration. Values reported represent the mean and SD of at least three K d values calculated from separate measurements. Ca^2+ mobilization data were performed in triplicate wells and normalized to the peak response elicited by 3 μmol/L ionomycin. CRE assay was conducted in triplicate, and data were normalized to the response elicited by the vehicle. Curves were fitted with three variable nonlinear regressions. For GPR68 assays, responses were normalized to CRE response at pH 6.8 (100%) and pH 7.8 (0%).
# [2] = test system: α1A‐AR expressing COS‐7 cells; assay type: cell-based, human; conditions: 10 μmol/L forskolin; for Modulation of forskolin CRE response by PDE inhibitor: IBMX 500 μmol/L, rolipram 10 μmol/L
# guinea pig PDE‐4 = conditions: cited from earlier work; for Potency relative to diazepam: benzodiazepines unsubstituted at N‐1
# α1B‐AR #15 [3] = assay: QAPB competition binding at purified thermostabilized receptor on paramagnetic beads; conditions: for QAPB displacement: 10 nmol/L QAPB, 2 hours, benzodiazepines up to 200 μmol/L
# WT α1A‐AR = target: T1, WT α1A‐AR (Homo sapiens, UniProt P35348); assay: Intracellular Ca2+ mobilization in stably expressing COS‐7 cells; assay type: cell-based; conditions: for Effect on Ca2+ mobilization: 0 to 50 μmol/L, absence or presence of 10 nmol/L phenylephrine
# T1 construct: expressed in transfected cells
# T1 sequence (P35348 1-466): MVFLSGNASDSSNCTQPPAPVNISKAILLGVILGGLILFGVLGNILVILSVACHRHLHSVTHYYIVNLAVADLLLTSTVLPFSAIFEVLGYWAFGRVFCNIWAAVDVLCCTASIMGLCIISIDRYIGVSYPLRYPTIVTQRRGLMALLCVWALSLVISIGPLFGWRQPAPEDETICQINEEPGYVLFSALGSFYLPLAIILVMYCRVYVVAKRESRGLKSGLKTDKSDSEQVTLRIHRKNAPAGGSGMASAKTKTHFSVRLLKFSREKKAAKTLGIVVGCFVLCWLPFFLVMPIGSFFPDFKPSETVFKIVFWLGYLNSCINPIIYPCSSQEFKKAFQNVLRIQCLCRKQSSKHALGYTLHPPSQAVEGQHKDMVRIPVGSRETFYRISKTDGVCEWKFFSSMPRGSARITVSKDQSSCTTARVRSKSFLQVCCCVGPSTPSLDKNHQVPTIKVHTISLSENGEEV
# WT α1B‐AR [4] = target: T2, WT α1B‐AR (Homo sapiens, UniProt P35368); assay: as above; assay type: cell-based; conditions: for Effect on Ca2+ mobilization: 0 to 50 μmol/L, absence or presence of 10 nmol/L phenylephrine
# T2 construct: COS‐7 cells stably expressing unmodified α1B‐AR; expressed in transfected cells
# T2 sequence (P35368 1-520): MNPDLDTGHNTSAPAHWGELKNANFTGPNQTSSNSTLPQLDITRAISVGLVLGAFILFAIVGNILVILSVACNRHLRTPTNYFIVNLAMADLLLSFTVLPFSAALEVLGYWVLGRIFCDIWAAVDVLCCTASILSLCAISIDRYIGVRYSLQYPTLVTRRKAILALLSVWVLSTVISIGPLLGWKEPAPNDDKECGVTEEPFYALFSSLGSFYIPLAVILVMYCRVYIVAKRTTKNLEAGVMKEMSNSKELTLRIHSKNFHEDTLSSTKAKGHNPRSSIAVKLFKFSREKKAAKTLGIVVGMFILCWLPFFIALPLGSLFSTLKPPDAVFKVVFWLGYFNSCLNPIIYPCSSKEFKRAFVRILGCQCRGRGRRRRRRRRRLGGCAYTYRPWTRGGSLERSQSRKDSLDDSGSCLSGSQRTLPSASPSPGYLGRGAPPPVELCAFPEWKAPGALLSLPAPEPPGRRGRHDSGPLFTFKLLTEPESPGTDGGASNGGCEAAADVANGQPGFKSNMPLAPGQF
# [5] = test system: α1B‐AR expressing COS‐7 cells; assay: Phenylephrine-induced CRE reporter assay; assay type: cell-based
# [6] = test system: untransfected human embryonic kidney 293T cells; assay: Forskolin-induced CRE reporter assay; assay type: cell-based; conditions: 50 μmol/L diazepam
# [7] = test system: untransfected COS‐7 cells; assay: Phenylephrine-induced CRE reporter assay; assay type: cell-based; conditions: 50 μmol/L diazepam; cells do not express α1A‐AR and α1B‐AR
# Description: as §1
# GPR68 = target: T3, GPR68 (Homo sapiens, UniProt Q15743); assay: GPR68 pH-stimulated CRE reporter assay; assay type: cell-based; conditions: pH 7.2; HEK293T cells transfected with GPR68
# T3 construct: expressed in transfected cells; host or cells: HEK293T (transient)
# T3 sequence (Q15743 whole entry, species assumed): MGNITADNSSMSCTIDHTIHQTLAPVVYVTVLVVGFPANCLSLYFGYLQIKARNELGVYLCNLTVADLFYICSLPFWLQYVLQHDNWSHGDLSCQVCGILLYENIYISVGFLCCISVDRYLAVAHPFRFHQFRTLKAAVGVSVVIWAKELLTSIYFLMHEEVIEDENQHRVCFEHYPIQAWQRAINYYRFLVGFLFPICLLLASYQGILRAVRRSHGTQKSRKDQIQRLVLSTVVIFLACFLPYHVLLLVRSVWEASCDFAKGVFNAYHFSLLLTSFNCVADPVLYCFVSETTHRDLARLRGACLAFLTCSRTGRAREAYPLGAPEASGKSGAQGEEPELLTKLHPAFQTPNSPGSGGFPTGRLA
# Description: as §1, with “Cells were incubated for 6 hours at 37°C, in a room atmosphere incubator.” left out
# Nuclear magnetic resonance (NMR) data were processed in Topspin 3.5 using squared cosine‐bells in both dimensions and zero‐filled once, prior to Fourier‐transformation. All other data was analyzed with Graphpad prism 7 (San Diego, CA, USA). […] For whole cell QAPB binding, the mean QAPB fluorescence intensity (MFI) of at lease 5000 cells was measured, and plotted against QAPB concentration. Values reported represent the mean and SD of at least three K d values calculated from separate measurements. […]
# [8] = test system: untransfected HEK293T cells; assay: Isoprenaline-induced CRE reporter assay; assay type: cell-based, human; conditions: 50 μmol/L diazepam
# α1A‐AR A4 [9] = conditions: for QAPB displacement: 10 nmol/L QAPB, 2 hours, benzodiazepines up to 200 μmol/L
# [10] = test system: purified guinea pig PDE‐4; conditions: cited from earlier work
# α1A‐AR A4 [11] = conditions: 500 μmol/L ligand, 5 μmol/L receptor in DDM, with and without 10 μmol/L prazosin; controls DDM alone and enNTS1
# WT α1B‐AR [12] = target: T2, WT α1B‐AR; assay: Whole cell QAPB saturation binding by flow cytometry; conditions: COS‐7 cells, read-out: K d of QAPB
# Description: Fifty microliter of the cell suspension was added to each well of a V‐bottom 96‐well plate (Sarstead, Nümbrecht, Germany). […] To determine nonspecific binding, cells were exposed to QAPB at the same concentrations as above, but in the presence of 100 μmol/L phentolamine. The cells were incubated with ligands for 1 hour at 20°C prior to detection of bound QAPB with flow cytometry using CytoFLEX LX flow cytometer (Beckman Coulter, Brea, CA, USA).
# α1A‐AR A4 [13] = conditions: previously reported; read-out: K d of QAPB; cited from earlier work
# α1B‐AR #15 [14] = conditions: previously reported; read-out: K d of QAPB; cited from earlier work
# [15] = 2.5 mmol/L phenylephrine, increasing diazepam
# [16] = not in untransfected COS‐7 cells
compound,measurement,setting,value
NCCOB(c1ccccc1)c1ccccc1 [2‐APB],Effect of inhibitor on diazepam modulation of phenylephrine‐stimulated CRE response,[1]; 50 μmol/L diazepam,had no significant effect
same,Effect of inhibitor on diazepam modulation of forskolin‐stimulated CRE response,[2]; 50 μmol/L diazepam,had no significant effect
COC(=O)C1=C(C)NC(C)=C([N+](=O)[O-])[C@@H]1c1ccccc1C(F)(F)F [(R)‐(+)‐Bay K 8644],Effect of inhibitor on diazepam modulation of phenylephrine‐stimulated CRE response,[1]; 50 μmol/L diazepam,had no significant effect
same,Effect of inhibitor on diazepam modulation of forskolin‐stimulated CRE response,[2]; 50 μmol/L diazepam,had no significant effect
CC(C)Cn1c(=O)n(C)c(=O)c2[nH]cnc21 [IBMX],"Cotreatment with diazepam, effect on phenylephrine CRE response",[1]; 50 μmol/L diazepam,had no additional positive modulatory effect
same,Modulation of phenylephrine CRE response by PDE inhibitor,[1],positively modulated the CRE response of phenylephrine to a similar level as diazepam
same,"Cotreatment with diazepam, effect on forskolin CRE response",[2]; 50 μmol/L diazepam,no additive effect was observed
same,Modulation of forskolin CRE response by PDE inhibitor,[2],positively modulated the CRE response of forskolin
COc1ccc(S(=O)(=O)N(CCO)c2ccccc2CN(C)C/C=C/c2ccc(Cl)cc2)cc1 [KN‐93],Effect of inhibitor on diazepam modulation of phenylephrine‐stimulated CRE response,[1]; 50 μmol/L diazepam,had no significant effect
same,Effect of inhibitor on diazepam modulation of forskolin‐stimulated CRE response,[2]; 50 μmol/L diazepam,had no significant effect
Cl.NCCCCCCNS(=O)(=O)c1cccc2c(Cl)cccc12 [W‐7 hydrochloride],Effect of inhibitor on diazepam modulation of phenylephrine‐stimulated CRE response,[1]; 50 μmol/L diazepam,significantly reduced both the phenylephrine response and the diazepam modulation of the CRE response
same,Effect of inhibitor on diazepam modulation of forskolin‐stimulated CRE response,[2]; 50 μmol/L diazepam,had no significant effect on forskolin stimulation
COC(=O)C1=C(C)NC(C)=C(C(=O)OC2CCCN(Cc3ccccc3)C2)C1c1cccc([N+](=O)[O-])c1 (stereo not shown) [benidipine],Effect of inhibitor on diazepam modulation of phenylephrine‐stimulated CRE response,[1]; 50 μmol/L diazepam,significantly reduced both the phenylephrine response and the diazepam modulation of the CRE response
same,Effect of inhibitor on diazepam modulation of forskolin‐stimulated CRE response,[2]; 50 μmol/L diazepam,had no effect
CN1CCc2cc3c(cc2[C@H]1[C@@H]1OC(=O)c2c1ccc1c2OCO1)OCO3 [bicuculline],Effect of inhibitor on diazepam modulation of phenylephrine‐stimulated CRE response,[1]; 50 μmol/L diazepam,had no effect
same,Effect of inhibitor on diazepam modulation of forskolin‐stimulated CRE response,[2]; 50 μmol/L diazepam,had no effect
O=C1CN=C(c2ccccc2Cl)c2cc([N+](=O)[O-])ccc2N1 [clonazepam],Potency relative to diazepam,guinea pig PDE‐4,less potent than diazepam
CN1C(=O)CN=C(c2ccccc2)c2cc(Cl)ccc21 [diazepam],QAPB displacement,α1B‐AR #15 [3],neither diazepam nor lorazepam displaced QAPB at either receptor
same,Cooperativity with phenylephrine in QAPB displacement,α1B‐AR #15 [3]; [15],No cooperativity between diazepam and phenylephrine was observed
same,Effect on Ca2+ mobilization,WT α1A‐AR,had no effect
same,Effect on Ca2+ mobilization,WT α1B‐AR [4],had no effect
same,Modulation of phenylephrine potency in CRE assay,[1]; 50 μmol/L diazepam,positively modulated the potency of phenylephrine
same,EC50,"[1]; COS-7, 200 nmol/L phenylephrine, mean ± SD from three experiments, read-out: EC50 for modulating the phenylephrine CRE response",6500 ± 4800 nM
same,CRE response in the absence of phenylephrine,[1]; diazepam alone,did not induce a CRE response
same,EC50,"[5]; COS-7, 800 nmol/L phenylephrine, mean ± SD from three experiments, read-out: EC50 for modulating the phenylephrine CRE response",7800 ± 1900 nM
same,CRE response in the absence of phenylephrine,[5]; diazepam alone,did not induce a CRE response
same,Modulation of forskolin potency in CRE assay,[6],positively modulated the potency
same,Modulation of phenylephrine‐induced CRE response,[7],positively modulated
same,Modulation of GPR68 CRE response,GPR68,did not significantly increase the CRE response of GPR68
same,Modulation of isoprenaline CRE efficacy,[8],significantly increased the CRE efficacy of isoprenaline
same,QAPB displacement,α1A‐AR A4 [9],neither diazepam nor lorazepam displaced QAPB at either receptor
same,Cooperativity with phenylephrine in QAPB displacement,α1A‐AR A4 [9]; [15],No cooperativity between diazepam and phenylephrine was observed
same,IC50,guinea pig PDE‐4,9000 nM
same,Competition with 3H‐rolipram,[10],competes with ^3H‐rolipram
O=C1Nc2ccc(Cl)cc2C(c2ccccc2Cl)=NC1O (stereo not shown) [lorazepam],QAPB displacement,α1B‐AR #15 [3],neither diazepam nor lorazepam displaced QAPB at either receptor
same,Effect on Ca2+ mobilization,WT α1A‐AR,had no effect
same,Effect on Ca2+ mobilization,WT α1B‐AR [4],had no effect
same,Modulation of GPR68 CRE response,GPR68,positively modulated the CRE response
same,QAPB displacement,α1A‐AR A4 [9],neither diazepam nor lorazepam displaced QAPB at either receptor
same,"STD NMR signals, interpretation",α1A‐AR A4 [11],nonspecific interactions with detergent micelles
same,Potency relative to diazepam,guinea pig PDE‐4,less potent than diazepam
O=C1CN=C(c2ccccc2)c2cc([N+](=O)[O-])ccc2N1 [nitrazepam],Potency relative to diazepam,guinea pig PDE‐4,less potent than diazepam
CNC[C@H](O)c1cccc(O)c1 [phenylephrine],QAPB displacement,α1B‐AR #15 [3],displaced QAPB at both receptor subtypes
same,Agonist stimulation of calcium mobilization,WT α1A‐AR; [16],stimulated calcium mobilization
same,Agonist stimulation of calcium mobilization,WT α1B‐AR [4]; [16],stimulated calcium mobilization
same,QAPB displacement,α1A‐AR A4 [9],displaced QAPB at both receptor subtypes
COc1ccc(C2CNC(=O)C2)cc1OC1CCCC1 (stereo not shown) [rolipram],"Cotreatment with diazepam, effect on phenylephrine CRE response",[1]; 50 μmol/L diazepam,had no additional positive modulatory effect
same,Modulation of phenylephrine CRE response by PDE inhibitor,[1],positively modulated the CRE response of phenylephrine to a similar level as diazepam
same,"Cotreatment with diazepam versus rolipram alone, forskolin CRE response",[2]; 50 μmol/L diazepam,significantly decreased
same,"Cotreatment with diazepam, effect on forskolin CRE response",[2]; 50 μmol/L diazepam,no additive effect was observed
same,Modulation of forskolin CRE response by PDE inhibitor,[2],positively modulated the CRE response of forskolin
quinazoline piperazine bodipy [QAPB],Kd,WT α1B‐AR [12]; absence of diazepam,12 ± 3 nM
same,Kd,WT α1B‐AR [12]; presence of 50 μmol/L diazepam,20 ± 13 nM
same,Kd,α1A‐AR A4 [13],11.6 nM
same,Kd,α1B‐AR #15 [14],8.5 nM
